Laboratory results from patent US20260109944A1, “Culture Method for Organoids” (Koninklijke Nederlandse Akademie Van Wetenschappen, priority 2014, published 2026).

Key:
[1] = system: human liver organoids; assay: Long-term expansion (passaging) of human liver organoids; format: cell-based
Experimental: Human liver cells isolated by collagenase dissociation were dissociated to single cell, counted and 3000 or 10000 cells were seeded per well in a 48 well plate. Mouse liver culture medium (ERFHNic) or medium supplemented with A8301 or A8301 and BMP7 or A8301 and BMP7 and Forskolin (FSK) was overlaid as indicated and organoids were allowed to grow. The cultures were split every week 7-10 days at a ratio of 1:4-1:6 dilution.
Human liver organoids were seeded in mouse medium supplemented with A8301 and with one of the CAMP activators as indicated in FIG. 4. Cholera toxin was used at a concentration of 100 ng/ml. Only the cultures that were treated with CAMP activators were able to be expanded >2 months (P8).
Liver cells were isolated by collagenase digestion as follows: tissue (0.5-1 cm^3) was minced, rinsed 2× with DMEM (Gibco) 1% FCS and incubated with the digestion solution (2.5 mg/ml collagenase D (Roche)+0.1 mg/ml DNase I (Sigma) in EBSS (Hyclone, Thermoscientific), for […] at 37° C. The digestion was stopped by adding cold DMEM 1% FCS and the suspension was then filtered through a 70 um Nylon cell strainer and spun 5 min at 300-400 g. The pellet was resuspended in DMEM 1% FCS and kept cold. Any material retained on the strainer was further digested for 10 min in Accutase (Innovative Cell Technologies) at 37° C. Then, the digestion was stopped and the cells were collected as before. The different fractions (collagenase and accutase) were mixed and washed with cold Advanced DMEM/F12 and spun at 300-400 g for 5 min. The cell pellet was mixed with Matrigel (BD bioscience) and 3000-10000 cells were seeded per well in a 48 well/plate. After Matrigel had solidified, culture medium was added. Culture media was based on AdDMEM/F12 (Invitrogen) supplemented with N2 and B27 without retinoic acid (both from Gibco), 1.25 mM N-Acetylcysteine (Sigma). 10 nM gastrin (Sigma) and the growth factors: 50 ng/ml EGF (Peprotech), 10% RSPO1 conditioned media (home-made), 100 ng/ml FGF10 (Peprotech). 25 ng/ml HGF, 10 mM Nicotinamide (Sigma), 5 uM TGF-beta inhibitor (A83.01 (Tocris)) and 10 uM FSK (Tocris). For the establishment of the culture, the first 3 days after isolation the medium was supplemented with 25 ng/ml Noggin (Peprotech), 30% Wnt CM (home-made prepared as described in (Barker and Huch 2010)), 10 uM Rock inhibitor (Y27632) and hES Cell cloning Recovery solution (Stemgent). Then, the medium was changed into a medium without Noggin, Wnt. Y27632, hES Cell cloning Recovery solution (Stemgent) while 25 ng/ml BMP7 (Peprotech) were supplemented on top. One week-10 days organoids were removed from the Matrigel, mechanically dissociated into small fragments, and transferred to fresh Matrigel. Passage was performed in 1:4-1:8 split ratio once per week for at least 6 months. […]

[2] = system: Lgr5 cells in human liver cultures; assay: Flow cytometry analysis of LGR5 positive cells; format: cell-based; conditions: cultured >4 weeks in the presence of FSK; not readily detected in absence; 2 donor cultures
Experimental: (§1) Lgr5 expression was analysed in cultures grown in our defined culture medium by immunofluorescence and flow cytometry analysis. (FIG. 5A) Confocal image of a human liver organoid showing that the organoids are formed by epithelial derived cells positive for EPCAM (blue). The stem cell marker Lgr5 (green) was restricted to a subset of cells within the organoid, while the Wnt target gene EPHB2 (red) was broadly expressed, but colocalized with LGR5 as expected. Staining was performed on single cells isolated from a culture that had been cultured for >4 weeks in the presence or absence of FSK. Only in the presence of FSK Lgr5 cells could be readily detected as a 1-3% of the culture population. Experiment was performed in 2 independent human liver donor cultures. (FIG. 5C) qPCR analysis of the expression of LGR5 in 4 week old cultures treated in the presence or absence of FSK.
Exponentially growing organoids were cultured for at least 5 days in the presence or absence of FSK. Then, organoids were dissociated into single cells using Accutase, resuspended in DMEM+2% FBS and incubated with Lgr5 antibody (AP2745d, Abgent) for 45 min. […] Cells were analyzed with a BD FACS Calibur (Becton-Dickinson); FSC: propidium iodide was used to label dead cells for exclusion and pulse-width gating to exclude cell doublets.

[3] = system: LGR5 expression in human liver cultures; assay: qPCR analysis of LGR5 expression; format: cell-based; conditions: 4 week old cultures, presence vs absence of FSK
Experimental: as §1

[4] = system: cAMP pathway; conditions: compared with 8-BR-cAMP and forskolin; cited from earlier work
[5] = system: human liver organoid cultures (ALB, CYP3A4 expression); conditions: hepatocytes
[6] = culture medium supplemented with A8301 combined with FSK, split ratio 1:4-1:6 every 7-10 days

For `C=C[C@@]1(C)CC(=O)[C@]2(O)[C@@]3(C)[C@@H](O)CCC(C)(C)[C@@H]3[C@H](O)[C@H](OC(C)=O)[C@@]2(C)O1` [FSK, forskolin], the “number of passages the cultures were able to grow” value [1, 6] was greater than 18 passages, the “time the cultures were able to grow” value [1, 6] was greater than 5 months and the “Lgr5 cells as % of the culture population” value [2] was 1-3%. The “LGR5 expression levels, upregulation upon treatment” value [3] was 2-3 ×.

In the case of `C=C[C@@]1(C)CC(=O)[C@]2(O)[C@@]3(C)[C@@H](O)CCC(C)(C)[C@@H]3[C@H](OC(=O)CCN(C)C)[C@H](OC(C)=O)[C@@]2(C)O1.Cl` [NKH477], the “relative potency as cAMP pathway activator” value [4] is listed as “generally more potent than 8-BR-CAMP and forskolin”.

With `Cc1cccc(-c2nn(C(=S)Nc3ccccc3)cc2-c2ccnc3ccccc23)n1` [A83-01, 3-(6-Methyl-2-pyridinyl)-N-phenyl-4-(4-quinolinyl)-1H-pyrazole-1-carbothioamide] the long-term expansion outcome ([1]; medium supplemented with A8301 only (no FSK)) was “arrested proliferation after some weeks in culture”.

B1: BMP7: BMP pathway activator; induces the phosphorylation of SMAD1 and SMAD5 (protein, UniProt P18075 293-431, looked up)
Bone morphogenetic protein 7: STGSKQRSQNRSKTPKNQEALRMANVAENSSSDQRQACKKHELYVSFRDLGWQDWIIAPEGYAAYYCEGECAFPLNSYMNATNHAIVQTLVHFINPETVPKPCCAPTQLNAISVLYFDDSSNVILKKYRNMVVRACGCH
For B1, the long-term expansion outcome ([1]; medium supplemented with BMP7 and A8301 (no FSK)) was “arrested proliferation after some weeks in culture” and the “effect on expression of hepatocyte markers ALB and CYP3A4” value [5] was “slightly facilitated the expression of hepatocyte markers ALB and CYP3A4”.
